The values that follow come from patent publication US11209437B2, “Fluorescent probe and preparation method and use thereof” (Fluorescence Diagnosis (shanghai) Biotech Company Ltd., priority 2016, dated 2021).

Where only a bound is given, the exact number is not on record here.

A short description of series [1]: Viscosity responsiveness: fluorescence emission spectra of probes in glycerol and methanol. The format is physicochemical. The conditions noted are these: for Emission wavelength: excited at maximum excitation wavelength of each probe; for Fluorescence ratio in glycerol to methanol: probe 1×10^−5 M. The gist of the method: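 Each probe, from a 1×10^−2 M DMSO stock, was diluted to a final 1×10^−5 M in glycerol and in methanol. Fluorescence emission spectra were then recorded under identical conditions at each probe's maximum excitation wavelength.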

Series [2] is described as follows: Fluorescence of free probe prior to binding to a protein tag. The format is physicochemical.
In another series the test system is CLIP protein tags. As to the kind of experiment: Fluorescence activation of probe after incubation with corresponding protein tag (CLIP). The format is biochemical. The conditions noted are these: probe 5 μM, protein tag 10 μM, 37° C., 1 hr. As for the experimental part: Probes were mixed with corresponding protein tags to obtain mixed samples, in which the final probe concentration was 5 μM, and the final protein tag concentration was 10 μM. The mixed samples were incubated 37° C. for 1 hr, fluorescence spectrophotometer was used to detect the change in fluorescence intensity, and the results are shown in Table 1.
From the quantum yield of probe bound to protein tag, after reacting with the protein tags, the probes of the Examples could be detected to have significant signal enhancement in corresponding excitation transmission channels, the fluorescence activation multiple reached several hundreds to a thousand or more, and the brightness was high, which illustrates that after the probes of the Examples are bound to the protein tags, fluorescence of the probes can be activated, and the probes have good fluorescent molecular switching properties. In contrast, though the fluorescence of the reference probes could also be activated, the quantum yield of activated fluorescence was very low, and the brightness was very poor. In particular, in view of comparison results between probe 98 and reference probe 99, probe 101 and reference probe 102, probe 103 and reference probe 104, probe 105 and reference probe 106, probe 107 and reference probe 108, probe 109 and reference probe 110, probe 111 and reference probe 112, probe 114 and reference probe 115, probe 117 and reference probe 118, probe 120 and reference probe 121 in Table 1, for the same fluorescent dye, when the ligand is connected to the electron donor part of the fluorescent dye, the fluorescence activation brightness of the probe is much higher than the reference probe in which ligand is connected to the electron acceptor part of the fluorescent dye.

A further series has as its target T1, SNAP protein tags (Homo sapiens, UniProt P16455, A127T/A154D/C150Q/C62A/E30R/G131K/G132T/G153L/K125A/K32I/L33F/M134L/N157G/Q115S/Q116H/R128A/R135S/S151G/S152D/S159E).
T1 sequence (P16455 1-182 E30R/K32I/L33F/C62A/Q115S/Q116H/K125A/A127T/R128A/G131K/G132T/M134L/R135S/C150Q/S151G/S152D/G153L/A154D/N157G/S159E): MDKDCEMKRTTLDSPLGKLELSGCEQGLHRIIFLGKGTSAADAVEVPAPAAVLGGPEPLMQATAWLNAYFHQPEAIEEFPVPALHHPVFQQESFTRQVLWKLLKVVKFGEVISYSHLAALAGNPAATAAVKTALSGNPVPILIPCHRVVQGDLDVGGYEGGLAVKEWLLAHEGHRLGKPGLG
Kind of series: Fluorescence activation of probe after incubation with corresponding protein tag (SNAP). In kind it is biochemical. The conditions noted are these: probe 5 μM, protein tag 10 μM, 37° C., 1 hr. The gist of the method:
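Probe (5 μM final) mixed with CLIP or SNAP protein tag (10 μM final) and incubated 1 hr at 37° C. Fluorescence intensity change measured by fluorescence spectrophotometer, with quantum yield of tag-bound probe determined.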

The test system of series [3] is HeLa cells with stable expression of protein tags. Kind of series: Labeling of HeLa cells expressing protein tags vs HeLa-WT cells, confocal imaging. In kind it is cell-based. The conditions noted are these: probe 5 μM, 37° C., 2 hrs. As for the experimental part: HeLa cells with stable expression of protein tags and HeLa-WT cells (HeLa primitive cells, with no protein tag expressed) were implanted in a 14 mm glass-bottom 96-well cell culture plate and stabilized for 10 hrs. Probes 1, 15, 21, 30, 56, 60, 63, 88 were added to the media, respectively and diluted to 5 μMs. The cells were incubated in a carbon dioxide incubator at 37° C. for 2 hrs, and then a Leica TPS-8 confocal microscopy was used to image the fluorescent changes of the labeled cells. […] However, for HeLa cells with protein tags expressed shown by group A in FIG. 12, strong fluorescent signals could be detected, which are nearly 300 times stronger.

Take `CN(CCOC(=O)NCc1ccc(COc2nccc(N)n2)cc1)c1cc2sc(/C=C(\C#N)c3nc4ccccc4s3)cc2s1` [probe 29]: in series [1], the Emission wavelength came to 610 nm and the “Fluorescence ratio in glycerol to methanol” value (“Fluorescence ratio” below) amounted to 998. Also, in series [2], the “Quantum yield of free probe” value is given as less than 0.001. In the series with CLIP protein tags, the Fluorescence activation multiple is 621 and the “Quantum yield of probe bound to protein tag” value (“Quantum yield of probe bound” for short) is recorded as 0.33.
As for `CN(CCOC(=O)NCc1ccc(COc2nc(N)nc3[nH]cnc23)cc1)c1ccc2cc(/C=C(\C#N)C(=O)OC(C)(C)C)sc2c1` [probe 30], in series [1], the Emission wavelength turned out to be 570 nm and the “Fluorescence ratio” value was found to be 1125. Moreover, in series [2], the “Quantum yield of free probe” value is reported as less than 0.001. Moreover, on SNAP protein tags, the Fluorescence activation multiple was determined as 535 and the “Quantum yield of probe bound” value was found to be 0.55. Besides, in series [3], the “Fluorescence signal in HeLa-WT cells (no protein tag expressed)” value is “no corresponding fluorescence signal was detected” and the “Fluorescent signal in HeLa cells with protein tags expressed, relative to HeLa-WT” value is approximately 300 times.
As for `CN(CCOC(=O)NCc1ccc(COc2nccc(N)n2)cc1)c1ccc2cc(/C=C(\C#N)C(=O)OC(C)(C)C)sc2c1` [probe 34], in series [1], the Emission wavelength is 570 nm and the “Fluorescence ratio” value is given as 1774. Further, the “Quantum yield of free probe” value in series [2] was less than 0.001. In addition, in the series on CLIP protein tags, the Fluorescence activation multiple was determined as 857 and the “Quantum yield of probe bound” value is 0.48.
In the same order, the values of `CN(CCOC(=O)NCc1ccc(COc2nccc(N)n2)cc1)c1ccc2nc(/C=C(\C#N)C(=O)OC(C)(C)C)oc2c1` [probe 45] are 603 nm, 752, less than 0.001, 958 and 0.29.
The matching figures for `CN(CCOC(=O)NCc1ccc(COc2nccc(N)n2)cc1)c1ccc2nc(/C=C(\C#N)C(=O)OC(C)(C)C)sc2c1` [probe 53]: 625 nm, 401, less than 0.001, 579 and 0.18.
`CN(CCOC(=O)NCc1ccc(COc2nc(N)nc3[nH]cnc23)cc1)c1ccc(C#C/C=C(\C#N)C(=O)OC(C)(C)C)cc1` [probe 56]: in series [1], the Emission wavelength is reported as 566 nm and the “Fluorescence ratio” value turned out to be 436. Moreover, in series [2], the “Quantum yield of free probe” value is recorded as less than 0.001. Also, at SNAP protein tags, the Fluorescence activation multiple amounted to 989 and the “Quantum yield of probe bound” value was 0.39. In series [3], the “Fluorescence signal in HeLa-WT cells (no protein tag expressed)” value is recorded as “no corresponding fluorescence signal was detected” and the “Fluorescent signal in HeLa cells with protein tags expressed, relative to HeLa-WT” value is reported as approximately 300 times.
On to `CN(CCOC(=O)NCc1ccc(COc2nccc(N)n2)cc1)c1ccc(C#C/C=C(\C#N)C(=O)OC(C)(C)C)cc1` [probe 57], for which, in series [1], the Emission wavelength is 566 nm and the “Fluorescence ratio” value is given as 762. The “Quantum yield of free probe” value in series [2] is listed as less than 0.001. Besides, in the series with CLIP protein tags, the Fluorescence activation multiple came out at 1026 and the “Quantum yield of probe bound” value is recorded as 0.31.
The matching figures for `COCCNC(=O)/C(C#N)=C/c1ccc(-c2ccc(N(C)CCOC(=O)NCc3ccc(COc4nccc(N)n4)cc3)cc2)s1` [probe 69]: 620 nm, 217, less than 0.001, 491 and 0.27.
For the compound `COCCNC(=O)/C(C#N)=C/c1cc2cc3sc(N(C)CCOC(=O)NCc4ccc(COc5nccc(N)n5)cc4)cc3cc2s1` [probe 72], in series [1], the Emission wavelength came out at 640 nm and the “Fluorescence ratio” value was determined as 268. For the same compound, the “Quantum yield of free probe” value in series [2] is listed as 0.001. Besides, in the series with CLIP protein tags, the Fluorescence activation multiple worked out at 486 and the “Quantum yield of probe bound” value amounted to 0.47.
The matching figures for `CN(CCOC(=O)NCc1ccc(COc2nccc(N)n2)cc1)c1ccc(-c2ccc(/C=C(\C#N)C(=O)OC(C)(C)C)s2)s1` [probe 80]: 655 nm, 218, 0.0011, 349 and 0.38.
Regarding `CN(CCOC(=O)NCc1ccc(COc2nccc(N)n2)cc1)c1ccc(-c2ccc(/C=C(\C#N)c3nc4ccccc4o3)s2)s1` [probe 81], in series [1], the Emission wavelength turned out to be 672 nm and the “Fluorescence ratio” value was determined as 235. For the same compound, in series [2], the “Quantum yield of free probe” value is less than 0.001. For the same compound, in the series on CLIP protein tags, the Fluorescence activation multiple was found to be 391 and the “Quantum yield of probe bound” value was determined as 0.29.
In the same order, the values of `CN(CCOC(=O)NCc1ccc(COc2nccc(N)n2)cc1)c1ccc(-c2ccc(/C=C(\C#N)c3nc4ccccc4s3)s2)s1` [probe 82] are 681 nm, 241, less than 0.001, 321 and 0.21.
In the same order, the values of `CC(C)(C)OC(=O)/C(C#N)=C/c1ccc2c(c1)SCCN2CCOC(=O)NCc1ccc(COc2nccc(N)n2)cc1` [probe 84] are 515 nm, 121, less than 0.001, 431 and 0.16.
In the same order, the values of `CC1=CC(C)(C)N(CCOC(=O)NCc2ccc(COc3nccc(N)n3)cc2)c2ccc(/C=C(\C#N)C(=O)OC(C)(C)C)cc21` [probe 90] are 575 nm, 109, less than 0.001, 541 and 0.28.
As for `CC1=CC(C)(C)N(CCOC(=O)NCc2ccc(COc3nccc(N)n3)cc2)c2ccc(/C=C(\C#N)c3nc4ccccc4s3)cc21` [probe 91], in series [1], the Emission wavelength stood at 612 nm and the “Fluorescence ratio” value was determined as 163. In addition, the “Quantum yield of free probe” value in series [2] is 0.0013. Further, in the series on CLIP protein tags, the Fluorescence activation multiple was 192 and the “Quantum yield of probe bound” value amounted to 0.24.
In the same order, the values of `CN(CCOC(=O)NCc1ccc(COc2nccc(N)n2)cc1)c1cc2c(s1)-c1sc(/C=C(/C#N)C(=O)OC(C)(C)C)cc1C2(C)C` [probe 95] are 645 nm, 431, less than 0.001, 553 and 0.42.
The matching figures for `CN(CCOC(=O)NCc1ccc(COc2nccc(N)n2)cc1)c1cc2c(s1)-c1sc(/C=C(/C#N)c3nc4ccccc4o3)cc1C2(C)C` [probe 96]: 675 nm, 125, less than 0.001, 435 and 0.31.
In the same order, the values of `CN(CCOC(=O)NCc1ccc(COc2nccc(N)n2)cc1)c1cc2c(s1)-c1sc(/C=C(/C#N)c3nc4ccccc4s3)cc1C2(C)C` [probe 97] are 700 nm, 261, less than 0.001, 812 and 0.23.
